Laboratory results published in publication PMC4032177 (Journal of medicinal chemistry, 2013).

How the values were obtained:
LRRK2 = LRRK2 (Homo sapiens, UniProt Q5S007); test: DiscoverRx ScanMax kinome binding scan; details: read-out: LRRK2 % inhibition of binding (ScanMax), 1 μM
MLK3 = MLK3 (Homo sapiens, UniProt Q16584); test: Radiometric MLK3 kinase inhibition assay; type: biochemical
DLK [1] = biological target: T1, DLK (Homo sapiens, UniProt Q12852); test: DLK kinase inhibition; type: biochemical
T1 sequence (Q12852 1-859): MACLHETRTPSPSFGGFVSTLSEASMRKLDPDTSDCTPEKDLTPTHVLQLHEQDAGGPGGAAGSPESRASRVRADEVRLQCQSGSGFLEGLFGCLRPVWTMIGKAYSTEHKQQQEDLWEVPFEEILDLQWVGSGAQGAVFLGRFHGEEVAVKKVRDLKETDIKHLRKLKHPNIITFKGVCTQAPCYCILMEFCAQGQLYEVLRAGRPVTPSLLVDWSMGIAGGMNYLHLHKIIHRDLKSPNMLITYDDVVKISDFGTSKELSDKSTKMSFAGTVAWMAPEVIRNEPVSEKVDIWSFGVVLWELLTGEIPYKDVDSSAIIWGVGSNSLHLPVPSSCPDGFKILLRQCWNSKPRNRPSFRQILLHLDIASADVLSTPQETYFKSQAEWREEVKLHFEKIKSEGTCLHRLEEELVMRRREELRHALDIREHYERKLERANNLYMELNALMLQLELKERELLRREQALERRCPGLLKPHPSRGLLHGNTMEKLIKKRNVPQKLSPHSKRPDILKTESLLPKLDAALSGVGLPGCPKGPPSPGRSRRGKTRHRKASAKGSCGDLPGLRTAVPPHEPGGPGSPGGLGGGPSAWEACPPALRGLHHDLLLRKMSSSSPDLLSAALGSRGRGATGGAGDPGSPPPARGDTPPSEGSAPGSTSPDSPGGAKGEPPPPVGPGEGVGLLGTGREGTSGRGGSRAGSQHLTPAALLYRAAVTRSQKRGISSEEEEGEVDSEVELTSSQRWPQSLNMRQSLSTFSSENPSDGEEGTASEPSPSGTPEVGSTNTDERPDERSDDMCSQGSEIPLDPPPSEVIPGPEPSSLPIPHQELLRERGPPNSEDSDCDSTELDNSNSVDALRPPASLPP

[2] = test system: phosphorylated JNK (pJNK) in brain; test: Inhibition of JNK phosphorylation in HIV-Tat treated mice; type: in vivo, C57BL/6 mice; details: 10 mg/kg i.p. every twelve hours
CDK11 = CDK11 (Homo sapiens, UniProt Q9BWU1); test: DiscoverRx ScanMax kinome binding scan; details: read-out: CDK11 % inhibition (ScanMax)
Sequence of CDK11 (Q9BWU1 whole entry): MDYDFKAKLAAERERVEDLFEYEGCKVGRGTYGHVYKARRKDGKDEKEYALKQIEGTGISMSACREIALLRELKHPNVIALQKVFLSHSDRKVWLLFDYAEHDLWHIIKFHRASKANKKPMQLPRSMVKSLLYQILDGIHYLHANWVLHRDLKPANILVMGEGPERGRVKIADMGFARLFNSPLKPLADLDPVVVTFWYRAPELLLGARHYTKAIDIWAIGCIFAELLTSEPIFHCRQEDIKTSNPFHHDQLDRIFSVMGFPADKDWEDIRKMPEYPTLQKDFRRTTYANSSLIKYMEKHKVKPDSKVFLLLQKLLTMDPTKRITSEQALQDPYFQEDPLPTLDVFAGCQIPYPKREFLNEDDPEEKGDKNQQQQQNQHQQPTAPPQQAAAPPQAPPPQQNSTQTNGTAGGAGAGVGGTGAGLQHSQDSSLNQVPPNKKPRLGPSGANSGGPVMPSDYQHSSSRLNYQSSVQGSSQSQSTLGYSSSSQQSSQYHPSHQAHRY

DLK [3] = biological target: T1, DLK; test: DiscoverRx ScanMax kinome binding scan
AKT1 = AKT1 (Homo sapiens, UniProt P31749); test: Kinase specificity profiling; type: binding
Sequence of AKT1 (P31749 whole entry): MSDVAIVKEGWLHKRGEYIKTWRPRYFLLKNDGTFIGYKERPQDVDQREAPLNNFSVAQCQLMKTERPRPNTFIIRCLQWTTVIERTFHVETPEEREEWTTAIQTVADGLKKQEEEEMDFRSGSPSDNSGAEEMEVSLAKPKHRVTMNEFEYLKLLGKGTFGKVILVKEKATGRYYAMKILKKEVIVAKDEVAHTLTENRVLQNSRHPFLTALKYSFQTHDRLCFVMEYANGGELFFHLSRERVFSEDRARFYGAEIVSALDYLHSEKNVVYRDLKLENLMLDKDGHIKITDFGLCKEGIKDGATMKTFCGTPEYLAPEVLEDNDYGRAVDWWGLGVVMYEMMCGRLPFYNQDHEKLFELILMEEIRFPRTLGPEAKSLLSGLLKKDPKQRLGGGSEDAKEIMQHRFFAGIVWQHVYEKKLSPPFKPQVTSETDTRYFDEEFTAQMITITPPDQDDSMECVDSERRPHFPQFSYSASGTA

AKT2 = AKT2 (Homo sapiens, UniProt P31751); test: Kinase specificity profiling; type: binding
Sequence of AKT2 (P31751 whole entry): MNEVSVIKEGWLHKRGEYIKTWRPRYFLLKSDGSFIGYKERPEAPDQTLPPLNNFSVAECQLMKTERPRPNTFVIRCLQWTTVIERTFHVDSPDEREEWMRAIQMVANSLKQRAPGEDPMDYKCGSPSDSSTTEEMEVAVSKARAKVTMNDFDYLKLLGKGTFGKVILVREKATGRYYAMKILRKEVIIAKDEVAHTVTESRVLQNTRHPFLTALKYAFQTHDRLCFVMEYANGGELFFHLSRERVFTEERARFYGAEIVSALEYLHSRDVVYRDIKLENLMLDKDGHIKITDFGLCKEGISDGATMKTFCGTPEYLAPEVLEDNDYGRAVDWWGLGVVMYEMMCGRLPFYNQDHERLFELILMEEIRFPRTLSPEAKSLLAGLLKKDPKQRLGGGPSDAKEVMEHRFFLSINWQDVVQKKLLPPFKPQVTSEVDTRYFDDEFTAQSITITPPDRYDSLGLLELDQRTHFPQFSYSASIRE

AKT3 = AKT3 (Homo sapiens, UniProt Q9Y243); test: Kinase specificity profiling; type: binding
ERK1 = ERK1 (Homo sapiens, UniProt P27361); test: Kinase specificity profiling; type: binding
Sequence of ERK1 (P27361 whole entry): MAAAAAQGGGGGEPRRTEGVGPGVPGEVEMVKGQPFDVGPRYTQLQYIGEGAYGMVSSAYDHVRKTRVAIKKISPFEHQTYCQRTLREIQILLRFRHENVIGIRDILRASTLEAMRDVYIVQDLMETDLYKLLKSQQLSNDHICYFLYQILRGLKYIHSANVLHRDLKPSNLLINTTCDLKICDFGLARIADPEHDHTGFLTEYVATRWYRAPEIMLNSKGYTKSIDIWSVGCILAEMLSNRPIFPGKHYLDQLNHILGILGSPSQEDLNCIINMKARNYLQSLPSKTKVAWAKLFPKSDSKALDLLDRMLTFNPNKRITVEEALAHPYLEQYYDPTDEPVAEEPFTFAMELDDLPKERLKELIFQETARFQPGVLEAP

ERK2 = ERK2 (Homo sapiens, UniProt P28482); test: Kinase specificity profiling; type: binding
Sequence of ERK2 (P28482 whole entry): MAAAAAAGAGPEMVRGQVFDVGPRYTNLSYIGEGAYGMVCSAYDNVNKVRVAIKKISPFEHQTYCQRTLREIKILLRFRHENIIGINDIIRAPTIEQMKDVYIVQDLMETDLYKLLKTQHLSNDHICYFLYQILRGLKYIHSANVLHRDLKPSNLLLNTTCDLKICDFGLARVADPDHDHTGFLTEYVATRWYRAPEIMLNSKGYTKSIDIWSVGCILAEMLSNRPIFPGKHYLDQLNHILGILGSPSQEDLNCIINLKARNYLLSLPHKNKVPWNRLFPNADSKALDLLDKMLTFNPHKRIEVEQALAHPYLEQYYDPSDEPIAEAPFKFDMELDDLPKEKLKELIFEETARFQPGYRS

BRAF = BRAF (Homo sapiens, UniProt P15056); test: Kinase specificity profiling; type: binding
Sequence of BRAF (P15056 whole entry): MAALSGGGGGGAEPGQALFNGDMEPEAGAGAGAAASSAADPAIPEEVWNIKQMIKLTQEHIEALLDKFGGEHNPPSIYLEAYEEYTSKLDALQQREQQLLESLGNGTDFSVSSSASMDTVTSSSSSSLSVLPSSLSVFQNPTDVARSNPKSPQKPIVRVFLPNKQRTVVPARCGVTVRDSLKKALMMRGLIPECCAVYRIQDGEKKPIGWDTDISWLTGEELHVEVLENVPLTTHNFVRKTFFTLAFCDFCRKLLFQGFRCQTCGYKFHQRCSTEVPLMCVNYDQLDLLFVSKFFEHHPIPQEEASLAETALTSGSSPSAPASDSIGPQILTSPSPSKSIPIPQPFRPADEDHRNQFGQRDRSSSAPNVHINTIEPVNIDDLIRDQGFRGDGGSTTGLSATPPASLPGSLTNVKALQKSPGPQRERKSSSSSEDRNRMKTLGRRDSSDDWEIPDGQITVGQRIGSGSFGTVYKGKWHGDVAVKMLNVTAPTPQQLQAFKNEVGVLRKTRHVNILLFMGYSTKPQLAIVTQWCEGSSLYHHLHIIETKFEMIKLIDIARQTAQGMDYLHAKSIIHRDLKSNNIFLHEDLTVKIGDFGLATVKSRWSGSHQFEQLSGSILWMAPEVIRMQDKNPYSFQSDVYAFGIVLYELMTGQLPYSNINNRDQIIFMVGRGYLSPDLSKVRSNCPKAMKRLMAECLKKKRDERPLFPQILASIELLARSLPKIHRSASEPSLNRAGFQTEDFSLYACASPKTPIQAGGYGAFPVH

EGFR = EGFR (Homo sapiens, UniProt P00533); test: Kinase specificity profiling; type: binding
Sequence of EGFR (P00533 25-1210): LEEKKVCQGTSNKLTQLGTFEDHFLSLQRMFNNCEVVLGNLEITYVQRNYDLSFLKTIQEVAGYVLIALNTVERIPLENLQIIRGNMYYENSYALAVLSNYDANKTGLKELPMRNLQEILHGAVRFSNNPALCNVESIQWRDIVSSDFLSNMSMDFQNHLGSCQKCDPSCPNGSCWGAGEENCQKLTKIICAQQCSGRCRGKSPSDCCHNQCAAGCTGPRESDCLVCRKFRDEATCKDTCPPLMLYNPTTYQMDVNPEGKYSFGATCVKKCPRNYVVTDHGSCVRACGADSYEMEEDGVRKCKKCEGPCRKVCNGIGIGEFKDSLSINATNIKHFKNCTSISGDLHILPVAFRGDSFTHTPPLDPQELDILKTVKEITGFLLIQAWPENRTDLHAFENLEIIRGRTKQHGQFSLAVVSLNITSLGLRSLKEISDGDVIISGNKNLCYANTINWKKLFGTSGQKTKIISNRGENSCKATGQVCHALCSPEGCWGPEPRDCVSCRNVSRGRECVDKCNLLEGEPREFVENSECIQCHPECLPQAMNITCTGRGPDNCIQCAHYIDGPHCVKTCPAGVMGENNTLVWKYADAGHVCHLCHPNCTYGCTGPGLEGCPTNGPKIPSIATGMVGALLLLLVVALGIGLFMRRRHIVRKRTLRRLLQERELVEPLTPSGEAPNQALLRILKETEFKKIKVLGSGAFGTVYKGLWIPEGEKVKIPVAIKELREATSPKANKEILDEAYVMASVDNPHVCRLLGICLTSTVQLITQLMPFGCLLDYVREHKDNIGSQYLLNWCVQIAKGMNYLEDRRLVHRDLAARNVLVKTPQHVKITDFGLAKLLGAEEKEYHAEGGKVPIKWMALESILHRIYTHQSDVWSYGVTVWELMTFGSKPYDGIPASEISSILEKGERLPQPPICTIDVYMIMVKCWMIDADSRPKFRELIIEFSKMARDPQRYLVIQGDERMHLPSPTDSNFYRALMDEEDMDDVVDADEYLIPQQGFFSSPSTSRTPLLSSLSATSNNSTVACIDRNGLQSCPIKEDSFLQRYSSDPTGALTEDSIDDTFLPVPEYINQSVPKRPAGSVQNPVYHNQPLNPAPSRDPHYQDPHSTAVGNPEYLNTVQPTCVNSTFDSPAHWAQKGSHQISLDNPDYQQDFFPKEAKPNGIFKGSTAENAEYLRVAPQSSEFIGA

Sequence of MLK3 (Q16584 whole entry): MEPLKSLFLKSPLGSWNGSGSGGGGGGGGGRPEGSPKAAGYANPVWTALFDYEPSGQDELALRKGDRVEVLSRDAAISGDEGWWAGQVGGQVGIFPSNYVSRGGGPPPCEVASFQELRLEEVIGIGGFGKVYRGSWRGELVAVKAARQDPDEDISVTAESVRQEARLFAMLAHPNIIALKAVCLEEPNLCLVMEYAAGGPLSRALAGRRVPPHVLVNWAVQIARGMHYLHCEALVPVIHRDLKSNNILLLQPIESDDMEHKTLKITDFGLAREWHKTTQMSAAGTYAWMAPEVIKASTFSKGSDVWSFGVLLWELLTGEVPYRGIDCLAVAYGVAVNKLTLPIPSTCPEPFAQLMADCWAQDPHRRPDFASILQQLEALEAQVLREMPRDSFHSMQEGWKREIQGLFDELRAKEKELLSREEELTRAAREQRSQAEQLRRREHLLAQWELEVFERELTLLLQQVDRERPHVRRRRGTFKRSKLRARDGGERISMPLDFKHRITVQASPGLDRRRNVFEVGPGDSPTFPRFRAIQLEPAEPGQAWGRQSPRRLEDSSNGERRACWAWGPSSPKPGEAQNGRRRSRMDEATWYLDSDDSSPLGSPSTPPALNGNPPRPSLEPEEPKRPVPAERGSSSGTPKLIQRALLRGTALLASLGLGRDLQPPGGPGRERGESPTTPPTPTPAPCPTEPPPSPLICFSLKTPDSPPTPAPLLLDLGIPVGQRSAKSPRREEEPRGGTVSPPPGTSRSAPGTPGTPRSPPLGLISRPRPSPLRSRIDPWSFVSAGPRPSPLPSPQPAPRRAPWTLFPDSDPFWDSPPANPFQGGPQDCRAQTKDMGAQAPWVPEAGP

SMILES: CCSCc1ccc2c(c1)c1c3c(c4c5cc(CSCC)ccc5n5c4c1n2[C@H]1C[C@](O)(C(=O)OC)[C@]5(C)O1)CNC3=O [Compound 2, (9S,10R,12R)-9,12-Epoxy-1H-diindolo[1,2,3-fg:3′,2′,1′-kl]pyrrolo[3,4-i][1,6]benzodiazocine-10-carboxylic acid, 5,16-bis[(ethylthio)methyl]-2,3,9,10,11,12-hexahydro-10-hydroxy-9-methyl-1-oxo methyl ester]
- inhibition at 1 µM (LRRK2): > 99%

SMILES: COc1cc(-c2cnc3[nH]c(=O)n(-c4ccc5[nH]ccc5c4)c3n2)cc(OC)c1OC [Compound 7, 1-(1H-Indol-5-yl)-6-(3,4,5-trimethoxyphenyl)-1H-imidazo[4,5-b]pyrazin-2(3H)-one]
- IC50 (MLK3): 40 to 120 nM

SMILES: CN1CCN(Cc2ccc(-c3cnc4[nH]cc(-c5ccc6[nH]ccc6c5)c4c3)cc2)CC1 [Compound 1, 3-(1H-Indol-5-yl)-5-(4-((4-methylpiperazin-1-yl)methyl)phenyl)-1H-pyrrolo[2,3-b]pyridine]
- Ki (MLK3): ~10 nM
- IC50 (DLK [1]): 150 nM
- pJNK levels in saline-treated animals [2]: no effect
- inhibition at 1 µM (CDK11): > 90%
- Kd (DLK [3]): 70 nM
- Activity against AKT1 (AKT1): essentially inactive
- Activity against AKT2 (AKT2): essentially inactive
- Activity against AKT3 (AKT3): essentially inactive
- Activity against ERK1 (ERK1): essentially inactive
- Activity against ERK2 (ERK2): essentially inactive
- Activity against BRAF (BRAF): essentially inactive
- Activity against EGFR (EGFR): essentially inactive
